From US20260347403A1, “FUNGICIDAL COMPOUND” (priority 2022, published 2026)
Where “and” joins values, the source holds several entries; their conditions need not be identical. Equal values may be shown once. Read-outs that look alike come from different tables or passages of the source. Numbered stars: 1 amine (or outer) side, 2 acyl side, 3 side chain; on linkers, the order of the positions; unused ones are H or OH. Bridge positions count the residues as written; N and C are the ends. Square brackets hold non-standard residues; d marks the D form. Peptide text beside a SMILES is read from it. * marks the point of attachment. Tridecanoyl(12-Me) = CC(C)CCCCCCCCCCC(=O)*; X1 = NC(=O)CC(O)C(N[*:1])C(=O)[*:2]; NMeF = CN[CH](Cc1ccccc1)C(=O)O; NMeN = CN[CH](CC(N)=O)C(=O)O; X2 = CCC(C)CCCCCCCCCCC(=O)*

What was measured:
Pyrenophora teres = assay: Leaf disc preventative test on barley, Pyrenophora teres (Net Blotch), 5-7 days after application; type: in vivo; settings: Table 5
Description: (§1) Leaf disks or leaf segments of various plant species were cut from plants grown in the greenhouse. The cut leaf disks, or segments were placed in multiwell plates (24-well format) onto water agar. The leaf disks were sprayed with a test solution before inoculation with the fungal spores. Compounds to be tested were prepared as DMSO solutions (max. 10 mg/ml) which were diluted to the appropriate concentration with water plus 0.025% Tween® 20 just before spraying. The inoculated leaf disks or segments were incubated under defined conditions (temperature, relative humidity, light, etc.) according to the respective test system. A single evaluation of disease level was carried out by visual evaluation 3-9 days days after inoculation, depending on the pathosystem as indicated below. Percent disease control relative to the untreated check leaf disks or segments was then calculated.
Pyrenophora teres/Barley/Leaf Disc Preventative (Net Blotch)
Barley leaf segments cv. Hasso were placed on agar in a multiwell plate (24-well format) and sprayed with the formulated test compound diluted in water. The leaf segments were inoculated with a spore suspension of the fungus 2 days after application. The inoculated leaf segments were incubated at 20 °C and 65% rh under a light regime of 12 h light/12 h darkness in a climate cabinet and the activity of a compound was assessed as disease control compared to untreated when an appropriate level of disease damage appears in untreated check leaf segments (5-7 days after application).

[1] = system: several phytopathogenic fungi; assay: Liquid culture assays, summary over the fungi tested; type: cell-based; settings: up to; Tables 2 and 3
Description: Mycelia fragments or conidia suspensions of a fungus, prepared either freshly from liquid cultures of the fungus or from cryogenic storage, were directly mixed into nutrient broth.
A stock solution for compound of Formula I(a) and Formula I(b) was produced in DMSO (max. 10 mg/ml), which was diluted with water plus 0.025% Tween®20 to produce a 10× concentrated sample and 10 μl of this solution was pipetted into a microtiter plate (96-well format). The nutrient broth containing the fungal spores/mycelia fragments was then added to give an end concentration of the tested compound. The test plates were incubated in the dark at 24 °C and 96% rh. The inhibition of fungal growth was determined photometrically after 2-7 days, depending on the pathosystem, and percent antifungal activity relative to the untreated check was calculated.
The effect of the test compound (Formula I(a), I(b) and Lipopeptin A) was tested against the following fungi under the conditions as outlined above and specifically herein below: […]

[2] = system: Puccinia recondita f. sp. tritici; assay: Leaf disc/segment test on wheat, Puccinia recondita f. sp. tritici (Brown Rust), 7-9 days after application; type: in vivo
Description: as §1
Puccinia recondita f. Sp. Tritici/Wheat/Leaf Disc (Brown Rust)
Wheat leaf segments cv. Kanzler were placed on agar in multiwell plates (24-well format) and sprayed with the formulated test compound diluted in water. The leaf disks were inoculated with a spore suspension of the fungus 1 day after application. The inoculated leaf segments were incubated at 19 °C and 75% rh under a light regime of 12 h light/12 h darkness in a climate cabinet and the activity of a compound was assessed as percent disease control compared to untreated when an appropriate level of disease damage appears in untreated check leaf segments (7-9 days after application).

several fungal species = assay: Leaf disc or leaf segment tests, summary over the fungi tested; type: in vivo; settings: up to; Tables 4 and 5
Description: as §1

Puccinia recondita = assay: Leaf disc mixture assay with malonomicin, Puccinia recondita, curative spray timing, 8 dpi; type: in vivo, Puccinia recondita on wheat (cultivar Kanzler)
Description: A stock solution for the lipopeptide compound of Formula I(a) was produced in DMSO (max. 10 mg/ml). Malonomicin was produced according to Law et al, 2018 (Nature Catalys is |VOL 1|DECEMBER 2018|977-984). A stock solution of malonomicin was produced in water plus 0.025% Tween®20.
Assays to test efficacy of mixtures of compound of Formula I(a) in combination with malonomicin on the control of fungal pathogens in a leaf disc assay were designed for two 24well plates.
Table 22 and Table 23. Outline of 24well testplate (1) and testplate (2) including concentration of compounds sprayed per well. The upper number in the cell indicates compound of Formula I(a) concentration (ppm), the lower number malonomicin concentration (ppm). Column (1) holds a dilution series of compound of Formula I(a), row (2-D) hold a dilution series of malonomicin. Well 2-D-(1) represents an untreated check. This design was applied for tests including Puccinia recondita (EPPO code: PUCCRE) with preventive and curative spray timing.
A first set of master plates with 1× concentrated spray solution of the lipopeptide compound of Formula I(a) stock diluted in water with concentrations according to table 22, table 23, table 25 or table 26, respectively, was prepared. Each well contained 2% DMSO and 0.025% Tween20. Accordingly, a second set of master plates with 1× concentrated malonomicin stock diluted in water was prepared. Each well of the second set contained 0.025% Tween20. Leaf segments placed on agar in 24well plates were sprayed with 8 μl of solution from the master plate containing the lipopeptide compound of Formula I(a) and the leaf segments were let to dry, followed 2 hours later by 8 μl of solution from the master plate containing malonomicin. After second sprays had dried, leaf segments were infected with fungal spores to obtain a preventive application timing. Alternatively, leaf segments infected one day before spray of the compounds were used, resulting in a curative spray timing. In addition, several plates were produced where leaf segments were sprayed 2× in absence of test compound (with only DMSO and Tween20), representing the untreated check samples. For each leaf segment percent leaf coverage of disease symptoms was assessed. Percent leaf coverage reduction relative to the untreated check was calculated. Efficacy of the mixtures was tested in duplicate and on different fungal species. Reported efficacy values are the average of two replicate results.
Puccinia recondita (EPPO Code: PUCCRE) with Curative Spray Timing.
Wheat (cultivar Kanzler) leaf segments are placed on agar in multiwell plates (24-well format). The leaf disks are then inoculated with a spore suspension of the fungus. One day after inoculation the test solution is sprayed (8 ul per well). After appropriate incubation the activity of a compound is assessed 8 dpi (days after inoculation) as curative fungicidal activity

Pyricularia oryzae = type: cell-based; settings: concentrations in Table 8

## CCC(C)CCCCCCCCCCC(=O)NC1C(=O)NC(CC(=O)O)C(=O)NC(C(O)CC(N)=O)C(=O)NC(CO)C(=O)N(C)C(CC(N)=O)C(=O)N(C)C(Cc2ccccc2)C(=O)NC(CCC(N)=O)C(=O)NC(CCC(=O)O)C(=O)OC1C (stereo not drawn) [Formula I(b)] (X2-TD[X1]S[NMeN][NMeF]QE; ester 1-C; configuration not given here)
Pyrenophora teres; 0.82 ppm
  % reduction of fungal growth: 0%
Pyrenophora teres; 2.5 ppm
  % reduction of fungal growth: 0%
Pyrenophora teres; 7.4 ppm
  % reduction of fungal growth: 0%
Pyrenophora teres; 22 ppm
  % reduction of fungal growth: 0%
Pyrenophora teres; 67 ppm
  % reduction of fungal growth: 90%
Pyrenophora teres; 200 ppm
  % reduction of fungal growth: 90%
[1]
  control of phytopathogenic fungi: up to 100%
[2]; Table 4, 0.82 ppm
  % reduction of fungal growth: 0%
[2]; Table 4, 2.5 ppm
  % reduction of fungal growth: 0%
[2]; Table 4, 7.4 ppm
  % reduction of fungal growth: 0%
[2]; Table 4, 22 ppm
  % reduction of fungal growth: 0%
[2]; Table 4, 67 ppm
  % reduction of fungal growth: 45%
[2]; Table 4, 200 ppm
  % reduction of fungal growth: 70%
[2]; Table 5, 0.82 ppm
  % reduction of fungal growth: 0%
[2]; Table 5, 2.5 ppm
  % reduction of fungal growth: 0%
[2]; Table 5, 7.4 ppm
  % reduction of fungal growth: 0%
[2]; Table 5, 22 ppm
  % reduction of fungal growth: 35%
[2]; Table 5, 67 ppm
  % reduction of fungal growth: 70%
[2]; Table 5, 200 ppm
  % reduction of fungal growth: 95%
Several fungal species
  reduction of fungal growth: up to 95%

## NC[C@@H]1NC(=O)C(C(=O)CC(NC(=O)[C@@H](N)CO)(C(=O)O)C(=O)O)=C1O [malonomicin, {[(2S)-2-amino-3-hydroxypropanoyl]amino}{2-[(5S)-5-(aminomethyl)-4-hydroxy-2-oxo-2,5-dihydro-1H-pyrrol-3-yl]-2-oxoethyl}malonic acid]
Puccinia recondita; column (2): malonomicin 200 ppm, compound of Formula I(a) lines 1-A to 2-D = 200, 100, 50, 25, 12.5, 6.25, 3.13, 0 ppm
  control of fungal growth (% reduction of symtoms on the leaf segment as compared to untreated check): 100%
Puccinia recondita; column (3): malonomicin 20 ppm, compound of Formula I(a) lines 1-A to 2-D = 200, 100, 50, 25, 12.5, 6.25, 3.13, 0 ppm
  control of fungal growth (% reduction of symtoms on the leaf segment as compared to untreated check): 100%
Puccinia recondita; column (4): malonomicin 6.67 ppm, compound of Formula I(a) lines 1-A to 2-D = 200, 100, 50, 25, 12.5, 6.25, 3.13, 0 ppm
  control of fungal growth (% reduction of symtoms on the leaf segment as compared to untreated check): 100%
Puccinia recondita; column (5): malonomicin 2.22 ppm, compound of Formula I(a) lines 1-A to 2-D = 200, 100, 50, 25, 12.5, 6.25, 3.13, 0 ppm
  control of fungal growth (% reduction of symtoms on the leaf segment as compared to untreated check): 70%
Puccinia recondita; column (6): malonomicin 0.74 ppm, compound of Formula I(a) lines 1-A to 2-D = 200, 100, 50, 25, 12.5, 6.25, 3.13, 0 ppm
  control of fungal growth (% reduction of symtoms on the leaf segment as compared to untreated check): 35%
Pyricularia oryzae; plate column (2), highest malonomicin concentration, lines A-G with compound of Formula I(a) dilution series, line H malonomicin alone
  control of fungal growth (% reduction of growth in the test well as compared to untreated check): 90%
Pyricularia oryzae; plate column (3) of malonomicin dilution series, lines A-G with compound of Formula I(a), line H malonomicin alone
  control of fungal growth (% reduction of growth in the test well as compared to untreated check): 70%
Pyricularia oryzae; plate column (4) of malonomicin dilution series, lines A-G with compound of Formula I(a), line H malonomicin alone
  control of fungal growth (% reduction of growth in the test well as compared to untreated check): 70%
Pyricularia oryzae; plate column (5) of malonomicin dilution series, lines A-G with compound of Formula I(a), line H malonomicin alone
  control of fungal growth (% reduction of growth in the test well as compared to untreated check): 50%
Pyricularia oryzae; plate column (6) of malonomicin dilution series, lines A-G with compound of Formula I(a), line H malonomicin alone
  control of fungal growth (% reduction of growth in the test well as compared to untreated check): 50%
Pyricularia oryzae; plate column (7) of malonomicin dilution series, lines A-G with compound of Formula I(a), line H malonomicin alone
  control of fungal growth (% reduction of growth in the test well as compared to untreated check): 20%
Pyricularia oryzae; plate column (8) of malonomicin dilution series, lines A-G with compound of Formula I(a), line H malonomicin alone
  control of fungal growth (% reduction of growth in the test well as compared to untreated check): 20%
Pyricularia oryzae; plate column (9) of malonomicin dilution series, lines A-G with compound of Formula I(a), line H malonomicin alone
  control of fungal growth (% reduction of growth in the test well as compared to untreated check): 0%
Pyricularia oryzae; plate column (10) of malonomicin dilution series, lines A-G with compound of Formula I(a), line H malonomicin alone
  control of fungal growth (% reduction of growth in the test well as compared to untreated check): 0%
Pyricularia oryzae; plate column (11), lowest malonomicin concentration, lines A-G with compound of Formula I(a), line H malonomicin alone
  control of fungal growth (% reduction of growth in the test well as compared to untreated check): 0%

## CC(C)CCCCCCCCCCC(=O)NC1C(=O)NC(CC(=O)O)C(=O)NC(C(O)CC(N)=O)C(=O)NC(CO)C(=O)N(C)C(CC(N)=O)C(=O)N(C)C(Cc2ccccc2)C(=O)NC(CCC(N)=O)C(=O)NC(CCC(=O)O)C(=O)OC1C (stereo not drawn) [Formula I(a)] ({Tridecanoyl(12-Me)}-TD[X1]S[NMeN][NMeF]QE; ester 1-C; configuration not given here)
Pyrenophora teres; 0.82 ppm
  % reduction of fungal growth: 0%
Pyrenophora teres; 2.5 ppm
  % reduction of fungal growth: 0%
Pyrenophora teres; 7.4 ppm
  % reduction of fungal growth: 0%
Pyrenophora teres; 22 ppm
  % reduction of fungal growth: 0%
Pyrenophora teres; 67 ppm
  % reduction of fungal growth: 60%
Pyrenophora teres; 200 ppm
  % reduction of fungal growth: 80%
[1]
  control of phytopathogenic fungi: up to 100%
[2]; Table 4, 0.82 ppm
  % reduction of fungal growth: 0%
[2]; Table 4, 2.5 ppm
  % reduction of fungal growth: 0%
[2]; Table 4, 7.4 ppm
  % reduction of fungal growth: 0%
[2]; Table 4, 22 ppm
  % reduction of fungal growth: 0%
[2]; Table 4, 67 ppm
  % reduction of fungal growth: 90%
[2]; Table 4, 200 ppm
  % reduction of fungal growth: 100%
[2]; Table 5, 0.82 ppm
  % reduction of fungal growth: 0%
[2]; Table 5, 2.5 ppm
  % reduction of fungal growth: 0%
[2]; Table 5, 7.4 ppm
  % reduction of fungal growth: 0%
[2]; Table 5, 22 ppm
  % reduction of fungal growth: 35%
[2]; Table 5, 67 ppm
  % reduction of fungal growth: 90%
[2]; Table 5, 200 ppm
  % reduction of fungal growth: 95%
Puccinia recondita; column (1): compound of Formula I(a) alone, lines 1-A to 2-C = 200, 100, 50, 25, 12.5, 6.25, 3.13 ppm
  control of fungal growth (% reduction of symtoms on the leaf segment as compared to untreated check): 0% and 10%
Pyricularia oryzae; plate column (1): compound of Formula I(a) alone, dilution series lines A (highest) to G
  control of fungal growth (% reduction of growth in the test well as compared to untreated check): 20%
Several fungal species
  reduction of fungal growth: up to 95%
